The record followed here is publication PMC11404609, “Gut microbiota-mediated C-sulfonate metabolism impairs the bioavailability and anti-cholestatic efficacy of andrographolide” (Gut Microbes, 2024).

Series [1] is described as follows: Tissue distribution of AP and APM in rats. The format is in vivo. The conditions noted are these: ABX-treated rats vs Control, AP 120 mg/kg oral. The protocol: Control and ABX rats were orally administered a single dose of AP at 120 mg/kg. Control, ABX and germ-free C57BL/6J mice were orally administered a single dose of AP at 100 mg/kg. After 90 min of AP administration, all animals were euthanized, and blood and tissue samples were collected for subsequent analysis.
An ACQUITY^TM UPLC-MS/MS system equipped with an ACQUITY^TM UPLC BEH C18 Column (50 × 2.1 mm I.D., 1.7 μm, Waters, Milford, MA, USA) was utilized for the quantification of AP and APM as previously described.[47] Briefly, the detection samples (50 μL) were mixed with 50 μL of IS (50 ng/mL). AP and APM were extracted by 400 μL cold methanol. Supernatants were dried under nitrogen stream. Then, the residue was dissolved with 50% methanol in water, centrifuged for 30 min at 13,000 rpm, and 10 µL of the supernatant was subjected to UPLC-MS/MS analysis. The mobile phases consisted of eluent A (water) and eluent B (methanol) with a gradient elution as follows: 0–0.8 min, 10% B; 0.8–1.2 min, 10–90% B; 1.2–5.0 min, 90% B; 5.0–5.5 min, 90–10% B; 5.5–7.0 min, 10% B. The flow rate was 0.3 mL/min and the injection volume of all samples was 10 μL. The quantification of AP, APM and IS was performed by UPLC-MS/MS using an MRM method with the transitions of m/z 349.1→m/z 287.2 for AP, m/z 413.2→m/z 287.2 for APM, m/z 269→m/z 133 for IS.
AP was administered intravenously and orally to detect the production of the C-sulfonate metabolite APM. In tissue distribution experiment, rats were given AP intravenously (24 mg/kg) or orally (120 mg/kg), while mice received AP intravenously (20 mg/kg) or orally (100 mg/kg). After a 90-minute interval, the animals were sacrificed, and their liver, kidneys, small intestine, and colon were collected for analysis. In pharmacokinetic studies, rats were administered 24 mg/kg of AP intravenously or 120 mg/kg of AP by oral gavage. Blood samples were collected at predetermined time intervals (0, 5, 10, 20, 30, 40, 60, 90, 120, 180, 240, 360, and 480 min), as described, to detect the content of AP and APM by UPLC-MS/MS.

Another series deals with FXR. The series is described as follows: FXR expression in liver (RNA sequencing, qPCR, Western blot). The class given is in vivo, mice. The protocol: RNA in liver tissue was isolated from mice treated with ANIT and ANIT+AP (200 mg/kg, i.p.) and purified by TRIzol (Invitrogen, CA). The isolated RNA was quantified using Qubit 2.0 (Thermo Fisher Scientific, USA) following the manufacturer’s protocol. Libraries were prepared using the NEBNext® UltraTM RNA Library Prep Kit for Illumina® (NEB, USA) and sequenced on a Novaseq 6000 (Illumina, USA) at Novogene’s deep sequencing facility. Mapped reads from each sample were assembled using StringTie (v1.3.3b) in a reference-based approach, and featureCounts was used to quantify mapped reads. Differential expression analysis of two conditions/groups was performed using the DESeq2 R package (1.20.0).
Total RNA from frozen livers of Vehicle, AP (200 mg/kg, i.p.), ANIT (50 mg/kg), and ANIT+AP (200 mg/kg, i.p.) groups was extracted using the Animal Total RNA Isolation Kit (FOREGENE, China). cDNA was synthesized using a Color Reverse Transcription Kit (EZBioscience, Roseville, CA, USA). qPCR was performed using SYBR green/Rox qPCR master mix (EZBioscience, Roseville, CA, USA), according to the manufacturer’s instruction. The expression of target genes was normalized to β-actin, and fold changes were calculated using 2^–ΔΔCT method. For bacterial identification, genomic DNA of fecal flora was isolated using the TIANamp Stool DNA Kit (TIANGEN, Beijing, China) and qPCR was performed. […]

For `C=C1CC[C@@H]2[C@](C)(CO)[C@H](O)CC[C@@]2(C)[C@@H]1C/C=C1/C(=O)OC[C@H]1O` [AP, Andrographolide], in series [1], the “levels of AP in plasma and tissues” value was “elevated levels”. Further, the “expression of Fxr (Nr1h4) by RNA-sequencing” value with FXR (ANIT+AP (200 mg/kg, i.p.) vs ANIT) was “significant upregulation”. For the same molecule, in the series with FXR (after AP treatment (200 mg/kg, i.p.)), the “FXR expression by qPCR and Western blot” value is “upregulation of FXR expression”.
